Common to all, as to assay type: cell-based
In test [1] the test system is IL-8-induced neutrophil shape change in human whole blood. The test can be described thus: Whole blood neutrophil shape change assay (Assay L). The settings on record: 2 nM IL-8, neutrophil shape change by flow cytometry, read-out: Assay L WBSC IC50. On the procedure:
Whole Blood Neutrophil Shape Change Assay (L)
A flow cytometry based method used to measure the inhibition of IL-8 (interleukin-8)-induced neutrophil shape change in human whole blood.
IL-8 was made up to 2 μM stocks in 0.1% bovine serum albumin/PBS and stored at −80° C. On the day IL-8 was diluted in PBS (phosphate buffered saline) 10 minutes before use. IL-8 was used at final concentration of 2 nM and a concentration range from […] to 200 nM for the donor dose response curve.
Assay fixative solution was prepared fresh each day from 10× concentrated CellFIX™ solution diluted 1:10 in sterile distilled water and then 1:4 with PBS. Assay fixative solution was kept on ice prior to use.
A 10× lysis buffer was prepared in advance by dissolving 20.75 g […] and 2.5 g KHCO3 in 250 ml sterile H2O. This 10× lysis buffer was filtered under sterile conditions and stored for up to two weeks at 4° C. On the day a 1× lysis solution was prepared with sterile distilled H2O and kept on ice prior to use.
The test compounds were prepared as 10 mM stock solutions in 100% DMSO and were stored at 4° C. Once in use for an assay 10 mM stock compounds were thawed and stored at RT protected from light. Compound dilutions were prepared fresh on the day. The first series of dilutions in 100% DMSO were done first thing in the morning. Only once blood had been collected and arrived in laboratory was the next set of dilutions into PBS carried out (1:10 PBS, 10% DMSO). This limited the exposure of diluted compound to plastic and made sure the exposure timing was consistent between assays. Compounds were added to the deep 96 well plates at 10× the final desired concentration (with addition of blood final [DMSO]=1%).
Table 3 illustrates the compound dilution series used in human whole blood neutrophil shape change assay.
On the day of running the assay, assay fixative buffer and 1× lysis solutions were prepared and stored on ice. Compound dilutions in 100% DMSO were prepared as described previously. Human whole blood was collected in K2 EDTA Vacutainers. Once blood was in the laboratory, compound dilutions into PBS were carried out as described previously and depicted in Table 1. 10 μl of 10× final compound concentration was added to appropriate wells of a deep 96-well plate except controls where 10 μl of 10% DMSO was added in place of compound, as outlined in the dilution series in Table 1. The outer wells of the deep well assay plate were filled with 1200 μl of sterile distilled H2O in an effort to limit edge effects (rows A1-H1, A1-A12, A12-H12). An IL-8 dose response was determined for each blood donor examined, to monitor the donor response to IL-8. At this step in assay preparation for the IL-8 dose response samples 10 μl of PBS was added to designated wells. In addition the assay window without DMSO was also assessed each day. For such samples at this step in assay preparation 10 μl of PBS was added in the place of 10% DMSO.
80 μl of whole blood was added to compound/10% DMSO/PBS and mixed once gently upon addition. Lids were placed on the 96 well plates and samples were incubated for 15 minutes at 37° C. in a water-bath.
Following the compound pre-incubation 10× final IL-8 was added to appropriate wells (10 μl of 20 nM working stock IL-8, final IL-8 concentration in blood=2 nM) and 10 μl of PBS was added to the un-stimulated controls. 10× final dose response range IL-8 was also added to designated wells (final concentration range on assay plate was 200 nM to 0.0005 nM, 1:5 serial dilution in PBS). The IL-8 and PBS were added to appropriate wells across all assay plates in the same sequence as the blood to compound addition. Once added to all assay plates, samples were mixed quickly once to ensure even distribution of IL-8. Samples were incubated for 5 minutes at 37° C. in a water-bath. Following the incubation sample plates were transferred to ice where 250 μl of chilled Assay Fixative Buffer was added promptly to all wells. […]

Test [2] deals with PI 3-kinase alpha (Homo sapiens (Human), UniProt P42336). In words: Cellular p-Akt (S473) SureFire assay, Rat-1_PI3Kalpha cells (Assay H). The settings on record: p-AKT (Ser473) in Rat-1 cells expressing myr-HA-hp110 alpha, 1 h compound; read-out: Assay H PI3Kα IC50. An excerpt: (§1) Cellular Assays for PI 3-Kinase Alpha (H), Beta (I) and Delta (J)
Chain of PI 3-kinase alpha (P42336 whole entry): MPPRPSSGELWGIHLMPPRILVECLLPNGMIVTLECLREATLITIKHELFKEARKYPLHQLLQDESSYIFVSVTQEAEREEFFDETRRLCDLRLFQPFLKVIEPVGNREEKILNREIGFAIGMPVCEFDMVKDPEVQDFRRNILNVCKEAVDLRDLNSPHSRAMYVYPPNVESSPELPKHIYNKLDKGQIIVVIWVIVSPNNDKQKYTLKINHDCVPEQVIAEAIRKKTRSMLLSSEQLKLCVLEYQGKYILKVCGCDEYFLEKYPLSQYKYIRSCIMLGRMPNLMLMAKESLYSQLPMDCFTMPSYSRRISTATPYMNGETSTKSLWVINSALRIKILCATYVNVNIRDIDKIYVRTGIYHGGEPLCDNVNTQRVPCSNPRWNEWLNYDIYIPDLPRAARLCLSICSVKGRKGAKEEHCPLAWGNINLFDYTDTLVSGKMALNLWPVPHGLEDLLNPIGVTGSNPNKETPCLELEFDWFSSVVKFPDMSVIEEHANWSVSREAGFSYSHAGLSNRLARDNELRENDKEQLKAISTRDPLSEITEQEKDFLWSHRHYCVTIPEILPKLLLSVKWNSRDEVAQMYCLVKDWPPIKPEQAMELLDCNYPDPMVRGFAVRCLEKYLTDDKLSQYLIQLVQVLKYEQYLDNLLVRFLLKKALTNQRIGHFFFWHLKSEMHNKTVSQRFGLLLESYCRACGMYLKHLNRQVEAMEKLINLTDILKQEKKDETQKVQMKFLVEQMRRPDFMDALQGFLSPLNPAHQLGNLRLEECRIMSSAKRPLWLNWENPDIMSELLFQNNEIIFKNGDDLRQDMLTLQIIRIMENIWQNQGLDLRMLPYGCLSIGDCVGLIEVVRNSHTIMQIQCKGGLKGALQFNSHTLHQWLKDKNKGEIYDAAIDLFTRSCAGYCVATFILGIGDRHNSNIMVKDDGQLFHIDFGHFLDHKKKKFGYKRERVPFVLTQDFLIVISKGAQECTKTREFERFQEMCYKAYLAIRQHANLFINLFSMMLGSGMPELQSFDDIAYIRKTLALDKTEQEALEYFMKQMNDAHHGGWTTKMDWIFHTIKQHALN
Chain of PI 3-kinase alpha (Q63787 whole entry partner): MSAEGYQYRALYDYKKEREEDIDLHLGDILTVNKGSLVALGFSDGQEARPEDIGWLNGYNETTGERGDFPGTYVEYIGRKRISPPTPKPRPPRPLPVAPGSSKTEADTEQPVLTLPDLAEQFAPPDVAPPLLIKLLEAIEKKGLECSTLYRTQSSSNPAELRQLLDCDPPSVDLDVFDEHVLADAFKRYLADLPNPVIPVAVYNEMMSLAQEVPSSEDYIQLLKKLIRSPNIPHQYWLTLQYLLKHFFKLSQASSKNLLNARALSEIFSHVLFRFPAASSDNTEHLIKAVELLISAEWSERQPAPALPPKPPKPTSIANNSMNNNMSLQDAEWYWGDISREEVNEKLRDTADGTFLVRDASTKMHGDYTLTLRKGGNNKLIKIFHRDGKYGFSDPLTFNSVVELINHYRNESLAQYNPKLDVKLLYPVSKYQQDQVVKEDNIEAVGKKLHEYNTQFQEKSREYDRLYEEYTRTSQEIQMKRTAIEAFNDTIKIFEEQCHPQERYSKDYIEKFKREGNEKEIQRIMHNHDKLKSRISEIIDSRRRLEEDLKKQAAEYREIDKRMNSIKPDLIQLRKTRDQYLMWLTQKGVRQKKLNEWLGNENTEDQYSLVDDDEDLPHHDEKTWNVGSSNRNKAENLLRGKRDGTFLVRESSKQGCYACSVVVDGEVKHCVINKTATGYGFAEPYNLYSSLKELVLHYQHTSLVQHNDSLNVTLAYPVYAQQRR
(§2) AlphaScreen (Amplified Luminescent Proximity Homogeneous Assay, ALPHA, Perkin Elmer) is a non-radioactive bead-based proximity assay technology to study biomolecular interactions in a homogenous microtiter plate format. The brand name SureFire denotes AlphaScreen assays that are adapted to quantify the phosphorylation of endogenous cellular proteins in cell lysates, by using matched antibody pairs, which consist of an anti-phospho-kinase and an anti-kinase antibody. The assay allows characterization of kinase signaling in cells as well as measurement of kinase inhibitor effects.
(§3) Rat-1 cell lines stably overexpressing activated PI 3-kinase class I isoforms Rat-1 pBABEpuro Myr-HA-hp110 delta clone 5 (Rat-1_PI3Kdelta) and Rat-1 pBABEpuro Myr-HA-hp110 alpha clone 6 (Rat-1_PI3Kalpha) and Rat-1 pBABEpuro Myr-HA-hp110 beta (Rat-1_PI3beta) were cultivated in complete growth medium (DMEM high glucose, 10% (v/v) fetal bovine serum, 1% (v/v) MEM NEAA, 10 mM HEPES, 2 mM L-glutamine, puromycin (10 μg/mL for Rat-1_PI3Kdelta and Rat-1_PI3Kalpha, 4 ug/mL for Rat-1_PI3beta), 1% (v/v) Pen/Strep) to 90% confluency at 37° C./5% CO2/90% humidity in a humidified CO2 incubator and were split twice a week. The following materials were used for p-AKT(5473) detection in Rat-1 cell lysates: Dulbecco's modified Eagle's medium (DMEM) high glucose (Gibco Invitrogen, Basel, Switzerland, Cat. No. 41965), heat inactivated fetal bovine serum, qualified (HI FBS; Gibco Invitrogen, Basel, Switzerland, Lot. No. 16140), MEM non essential amino acids (NEAA; Gibco Invitrogen, Basel, Switzerland, Cat. No. 11140), HEPES (Gibco Invitrogen, Basel, Switzerland, Cat. No. 15630), penicillin/streptomycin (Pen/Strep, 100×; Gibco Invitrogen, Basel, Switzerland, Cat. No. 15140-122), L-glutamine (Gibco Invitrogen, Basel, Switzerland, Cat. No. 25030), puromycin (Sigma Aldrich, Buchs, Switzerland, Cat. No. P9620), DMSO (MERCK, Dietikon, Switzerland, Cat. No. 8.02912.2500), H2O, MilliQ-H2O unless otherwise stated (MILLIPORE QGARDOOR1, Millipore, Zug, Switzerland), bovine serum albumine (BSA; Sigma Aldrich, Buchs, Switzerland Cat. No. A8412), SureFire p-Akt 1/2 (Ser473) Assay Kit (Perkin Elmer, Schwerzenbach, Switzerland, Cat. No. TGRAS50K).
(§4) The p-Akt (S473) SureFire assay measures the phosphorylation of endogenous cellular Akt 1/2 at Ser473 in cell lysates. Using Rat-1 cells stably expressing myr-HA-tagged versions of the human PI3Kdelta, PI3Kalpha, or PI3Kbeta p110 catalytic subunit isoforms, the assay was developed as a two-plate protocol in a 384-well format.
(§5) For compound testing, the cells were seeded at a density of 4000 (Rat-1_PI3Kdelta), 7500 (Rat-1_PI3Kalpha), or 6200 (Rat-1_PI3Kbeta) cells in 20 μl complete growth medium into cell culture treated 384-well plates and were grown at 37° C./5% CO2/90% humidity for 24 h. Shortly before compound transfer, the complete medium was removed, 30 μl assay buffer (DMEM high glucose, 1×MEM NEAA, 10 mM HEPES, 2 mM L-glutamine, 0.1% (w/v) BSA) was added and 10 μl of the compound predilutions were transferred to the cells. After treatment with compound for 1 h, the cells were lysed by the addition of 20 μl lysis buffer supplemented with 0.24% (w/v) BSA. Detection of p-AKT (Ser473) was performed with the SureFire p-Akt 1/2 (Ser473) Assay Kit according to the manufacturer's instructions using 5 ul of cell lysate in a total detection volume of 12 μl.
(§6) IC50 values of the percentage inhibition of each compound at 8 concentrations (usually 10, 3.0, 1.0, 0.3, 0.1, 0.030, 0.010 and 0.003 μM) n=2 were derived by fitting a sigmoidal dose-response curve to a plot of assay readout over inhibitor concentration as described. All fits were performed with the program XLfit4 (ID Business Solutions, Guildford, UK).

Test [3] has as its target PI 3-kinase beta (Homo sapiens (Human), UniProt P42338). The test can be described thus: Cellular p-Akt (S473) SureFire assay, Rat-1_PI3Kbeta cells (Assay I). To be noted: p-AKT (Ser473) in Rat-1 cells expressing myr-HA-hp110 beta, 1 h compound; read-out: Assay I PI3Kβ IC50.
Source text: as §1, §2, §3, §4, §5, §6

Test [4] concerns the target PI 3-kinase delta (Homo sapiens (Human), UniProt O00329). The test can be described thus: Cellular p-Akt (S473) SureFire assay, Rat-1_PI3Kdelta cells (Assay J). The settings on record: p-AKT (Ser473) in Rat-1 cells expressing myr-HA-hp110 delta, 1 h compound; read-out: Assay J PI3Kδ IC50.
Source text: as §1, §2, §3, §4, §5, §6

One may read the IC50 as the concentration that gives 50% inhibition.

Chain of PI 3-kinase beta (P42338 whole entry): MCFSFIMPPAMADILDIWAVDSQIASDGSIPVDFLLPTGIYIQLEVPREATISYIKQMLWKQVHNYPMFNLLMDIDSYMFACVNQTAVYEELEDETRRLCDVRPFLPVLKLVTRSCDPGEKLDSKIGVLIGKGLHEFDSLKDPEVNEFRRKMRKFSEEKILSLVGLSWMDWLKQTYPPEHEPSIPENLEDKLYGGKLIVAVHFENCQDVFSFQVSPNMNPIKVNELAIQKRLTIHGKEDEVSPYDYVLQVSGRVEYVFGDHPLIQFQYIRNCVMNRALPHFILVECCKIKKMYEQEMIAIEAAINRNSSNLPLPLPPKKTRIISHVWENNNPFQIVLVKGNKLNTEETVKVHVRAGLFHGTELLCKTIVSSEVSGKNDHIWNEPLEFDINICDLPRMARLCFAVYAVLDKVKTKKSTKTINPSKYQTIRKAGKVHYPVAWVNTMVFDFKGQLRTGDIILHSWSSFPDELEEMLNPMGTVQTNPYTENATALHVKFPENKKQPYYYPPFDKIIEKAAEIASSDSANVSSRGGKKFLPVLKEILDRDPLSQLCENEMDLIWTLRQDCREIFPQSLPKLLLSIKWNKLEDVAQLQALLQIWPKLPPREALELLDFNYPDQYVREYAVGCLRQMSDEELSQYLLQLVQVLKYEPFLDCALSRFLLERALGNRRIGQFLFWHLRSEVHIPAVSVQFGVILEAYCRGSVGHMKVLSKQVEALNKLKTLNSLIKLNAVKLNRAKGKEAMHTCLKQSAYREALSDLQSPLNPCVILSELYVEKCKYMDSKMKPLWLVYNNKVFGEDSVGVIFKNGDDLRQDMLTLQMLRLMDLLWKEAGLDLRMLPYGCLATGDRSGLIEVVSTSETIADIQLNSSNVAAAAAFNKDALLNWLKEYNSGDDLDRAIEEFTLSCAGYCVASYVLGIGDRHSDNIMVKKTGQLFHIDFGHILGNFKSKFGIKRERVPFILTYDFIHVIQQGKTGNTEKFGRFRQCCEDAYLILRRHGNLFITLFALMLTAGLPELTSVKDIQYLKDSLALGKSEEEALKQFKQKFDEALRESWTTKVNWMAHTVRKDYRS
Chain of PI 3-kinase beta (Q63787 whole entry partner): as the sequence (Q63787 whole entry partner) above
Chain of PI 3-kinase delta (O00329 whole entry): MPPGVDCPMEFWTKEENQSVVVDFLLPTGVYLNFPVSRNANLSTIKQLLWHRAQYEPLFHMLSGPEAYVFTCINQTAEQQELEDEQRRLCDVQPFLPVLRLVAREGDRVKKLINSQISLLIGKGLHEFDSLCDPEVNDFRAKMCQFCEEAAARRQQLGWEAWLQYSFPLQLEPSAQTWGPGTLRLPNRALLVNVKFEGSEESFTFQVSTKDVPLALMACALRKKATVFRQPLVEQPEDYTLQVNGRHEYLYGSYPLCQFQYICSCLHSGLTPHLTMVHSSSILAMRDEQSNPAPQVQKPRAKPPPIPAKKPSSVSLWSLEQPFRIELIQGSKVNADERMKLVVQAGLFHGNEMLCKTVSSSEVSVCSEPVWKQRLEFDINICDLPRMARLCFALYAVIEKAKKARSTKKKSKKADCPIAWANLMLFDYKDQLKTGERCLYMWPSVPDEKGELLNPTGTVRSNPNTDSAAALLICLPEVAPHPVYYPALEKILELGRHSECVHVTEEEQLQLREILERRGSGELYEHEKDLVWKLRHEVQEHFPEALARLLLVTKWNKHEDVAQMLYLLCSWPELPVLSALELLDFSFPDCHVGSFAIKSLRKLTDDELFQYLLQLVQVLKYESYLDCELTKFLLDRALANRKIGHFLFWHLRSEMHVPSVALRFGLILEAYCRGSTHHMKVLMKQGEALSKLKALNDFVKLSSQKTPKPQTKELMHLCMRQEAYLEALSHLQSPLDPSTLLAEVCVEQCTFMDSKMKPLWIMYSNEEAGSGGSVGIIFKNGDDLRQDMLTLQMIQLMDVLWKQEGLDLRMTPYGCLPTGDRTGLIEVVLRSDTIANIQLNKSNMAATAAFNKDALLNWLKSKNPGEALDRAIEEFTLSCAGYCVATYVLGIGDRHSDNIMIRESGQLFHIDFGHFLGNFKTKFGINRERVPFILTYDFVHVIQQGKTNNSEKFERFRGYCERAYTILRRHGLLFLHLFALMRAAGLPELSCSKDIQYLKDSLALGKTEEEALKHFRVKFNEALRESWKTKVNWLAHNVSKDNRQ
Chain of PI 3-kinase delta (Q63787 whole entry partner): as the sequence (Q63787 whole entry partner) above

Turning to `Cc1cc(-c2cncc(-c3cc(S(=O)(=O)NC[C@H]4C[C@@H](O)C4)ccc3C)n2)n(C)n1` [Example 13, Cis 3-[6-(2,5-Dimethyl-2H-pyrazol-3-yl)-pyrazin-2-yl]-N-(3-hydroxy-cyclobutylmethyl)-4-methyl-benzenesulfonamide], in test [1], the IC50 worked out at 847 nM.
As for `Cc1ccc(S(=O)(=O)N[C@H]2CC[C@H](O)CC2)cc1-c1cncc(-c2csc(CN3CCOCC3)c2)n1` [Example 12, Trans N-(4-Hydroxy-cyclohexyl)-4-methyl-3-[6-(5-morpholin-4-ylmethyl-thiophen-3-yl)-pyrazin-2-yl]-benzenesulfonamide], the IC50 came out at 1140 nM in test [2], 1110 nM in test [3], 306 nM in test [4] and 830 nM in test [1].
Take `Cc1ccc(S(=O)(=O)NC2CC3(CC(O)C3)C2)cc1-c1cncc(-c2cn(C)nc2C)n1` (stereo not shown) [Example 6, 3-[6-(1,3-Dimethyl-1H-pyrazol-4-yl)-pyrazin-2-yl]-N-(6-hydroxy-spiro[3.3]hept-2-yl)-4-methyl-benzenesulfonamide]: the IC50 in test [2] is 709 nM; in test [3], 1050 nM; in test [4] it was 515 nM; in test [1], 374 nM.
Consider `Cc1ccc(S(=O)(=O)NC[C@H]2C[C@@H](O)C2)cc1-c1cncc(-c2cn(C)nc2C)n1` [Example 7, Cis 3-[6-(1,3-Dimethyl-1H-pyrazol-4-yl)-pyrazin-2-yl]-N-(3-hydroxy-cyclobutylmethyl)-4-methyl-benzenesulfonamide], for which, in test [1], the IC50 was 212 nM.

The values above are taken from patent US9862711B2, “Pyrazine derivatives as phosphatidylinositol 3-kinase inhibitors” (NOVARTIS AG, priority 2014, dated 2018).
